Species: Rattus norvegicus
Assay: DrugMatrix - Regimen: Daily Repeat
Format: toxicity, organism-based, Sprague-Dawley
Set-up: regimen Daily Repeat, gender Male, age 6-8 weeks
Settings: in vivo, po, route oral GAVAGE, vehicle .5 % CMC; for ABSOLUTE BASOPHIL / ABSOLUTE EOSINOPHIL / ABSOLUTE LYMPHOCYTE / ABSOLUTE MONOCYTE / ABSOLUTE SEGMENTED NEUTROPHIL / BASOPHIL / EOSINOPHIL / ERYTHROCYTE COUNT / HEMATOCRIT / HEMOGLOBIN / LEUKOCYTE COUNT / LYMPHOCYTE / MEAN CORPUSCULAR HEMOGLOBIN / MEAN CORPUSCULAR HEMOGLOBIN CONCENTRATION / MEAN CORPUSCULAR VOLUME / MONOCYTE / NEUTROPHIL / NUCLEATED RED BLOOD CELLS / PLATELET COUNT: tissue Blood; for ALANINE AMINOTRANSFERASE / ALBUMIN / ALKALINE PHOSPHATASE / ASPARTATE AMINOTRANSFERASE / BLOOD UREA NITROGEN / CARBON DIOXIDE / CHLORIDE / CHOLESTEROL / CREATINE PHOSPHOKINASE / CREATININE / GLUCOSE / LACTATE DEHYDROGENASE / LIPASE / PHOSPHORUS / POTASSIUM / SODIUM / TOTAL BILIRUBIN / TOTAL PROTEIN / URIC ACID: tissue Plasma
[1] = 80 mg/kg, 72 h, dose level Low, time 3 day
[2] = 80 mg/kg, 120 h, dose level Low, time 5 day
[3] = 1500 mg/kg, 72 h, dose level High, time 3 day
[4] = 1500 mg/kg, 120 h, dose level High, time 5 day

O=c1cnn([C@@H]2O[C@H](CO)[C@@H](O)[C@H]2O)c(=O)[nH]1 [6-AZAURIDINE]
ABSOLUTE BASOPHIL [1]: 0 CELLS/uL | ABSOLUTE EOSINOPHIL [1]: 0 CELLS/uL | ABSOLUTE LYMPHOCYTE [1]: 15386 CELLS/uL | ABSOLUTE MONOCYTE [1]: 95.33 CELLS/uL | ABSOLUTE SEGMENTED NEUTROPHIL [1]: 852 CELLS/uL | BASOPHIL [1]: 0% | EOSINOPHIL [1]: 0% | ERYTHROCYTE COUNT [1]: 5.24 x10E6/uL | HEMATOCRIT [1]: 34.9% | HEMOGLOBIN [1]: 13.33 G/DL | LEUKOCYTE COUNT [1]: 16.33 x10E3/uL | LYMPHOCYTE [1]: 94% | MEAN CORPUSCULAR HEMOGLOBIN [1]: 25.47 pg | MEAN CORPUSCULAR HEMOGLOBIN CONCENTRATION [1]: 38.2 G/DL | MEAN CORPUSCULAR VOLUME [1]: 66.6 fL | MONOCYTE [1]: 0.67% | NEUTROPHIL [1]: 5.33% | NUCLEATED RED BLOOD CELLS [1]: 0.33 /100WBC | PLATELET COUNT [1]: 1177.67 x10E3/uL | ALANINE AMINOTRANSFERASE [1]: 32.67 u/L | ALBUMIN [1]: 4.23 G/DL | ALKALINE PHOSPHATASE [1]: 410.67 u/L | ASPARTATE AMINOTRANSFERASE [1]: 74.33 u/L | BLOOD UREA NITROGEN [1]: 15.33 mg/dL | CARBON DIOXIDE [1]: 25 mmol/L | CHLORIDE [1]: 106.67 MEQ/L | CHOLESTEROL [1]: 73.67 mg/dL | CREATINE PHOSPHOKINASE [1]: 134.33 u/L | CREATININE [1]: 0.2 mg/dL | GLUCOSE [1]: 173.33 mg/dL | LACTATE DEHYDROGENASE [1]: 86.67 u/L | LIPASE [1]: 10.33 u/L | PHOSPHORUS [1]: 12.67 mg/dL | POTASSIUM [1]: 6.8 MEQ/L | SODIUM [1]: 148.73 MEQ/L | TOTAL BILIRUBIN [1]: 0.2 mg/dL | TOTAL PROTEIN [1]: 5.93 G/DL | URIC ACID [1]: 1.7 mg/dL | ABSOLUTE BASOPHIL [2]: 0 CELLS/uL | ABSOLUTE EOSINOPHIL [2]: 0 CELLS/uL | ABSOLUTE LYMPHOCYTE [2]: 12013.67 CELLS/uL | ABSOLUTE MONOCYTE [2]: 153.67 CELLS/uL | ABSOLUTE SEGMENTED NEUTROPHIL [2]: 1099.33 CELLS/uL | BASOPHIL [2]: 0% | EOSINOPHIL [2]: 0% | ERYTHROCYTE COUNT [2]: 5.94 x10E6/uL | HEMATOCRIT [2]: 37.2% | HEMOGLOBIN [2]: 13.73 G/DL | LEUKOCYTE COUNT [2]: 13.27 x10E3/uL | LYMPHOCYTE [2]: 90.67% | MEAN CORPUSCULAR HEMOGLOBIN [2]: 23.2 pg | MEAN CORPUSCULAR HEMOGLOBIN CONCENTRATION [2]: 36.93 G/DL | MEAN CORPUSCULAR VOLUME [2]: 62.77 fL | MONOCYTE [2]: 1.33% | NEUTROPHIL [2]: 8% | NUCLEATED RED BLOOD CELLS [2]: 0.33 /100WBC | PLATELET COUNT [2]: 1474.67 x10E3/uL | ALANINE AMINOTRANSFERASE [2]: 38 u/L | ALBUMIN [2]: 4.23 G/DL | ALKALINE PHOSPHATASE [2]: 363.67 u/L | ASPARTATE AMINOTRANSFERASE [2]: 88.33 u/L | BLOOD UREA NITROGEN [2]: 20.33 mg/dL | CARBON DIOXIDE [2]: 22 mmol/L | CHLORIDE [2]: 104.33 MEQ/L | CHOLESTEROL [2]: 68 mg/dL | CREATINE PHOSPHOKINASE [2]: 230.33 u/L | CREATININE [2]: 0.22 mg/dL | GLUCOSE [2]: 166.67 mg/dL | LACTATE DEHYDROGENASE [2]: 119.33 u/L | LIPASE [2]: 10.33 u/L | PHOSPHORUS [2]: 13.2 mg/dL | POTASSIUM [2]: 6.55 MEQ/L | SODIUM [2]: 146.7 MEQ/L | TOTAL BILIRUBIN [2]: 0.13 mg/dL | TOTAL PROTEIN [2]: 6.17 G/DL | URIC ACID [2]: 2.23 mg/dL | ABSOLUTE BASOPHIL [3]: 0 CELLS/uL | ABSOLUTE EOSINOPHIL [3]: 0 CELLS/uL | ABSOLUTE LYMPHOCYTE [3]: 9340.33 CELLS/uL | ABSOLUTE MONOCYTE [3]: 29.33 CELLS/uL | ABSOLUTE SEGMENTED NEUTROPHIL [3]: 363.67 CELLS/uL | BASOPHIL [3]: 0% | EOSINOPHIL [3]: 0% | ERYTHROCYTE COUNT [3]: 5.26 x10E6/uL | HEMATOCRIT [3]: 32.03% | HEMOGLOBIN [3]: 12.07 G/DL | LEUKOCYTE COUNT [3]: 9.73 x10E3/uL | LYMPHOCYTE [3]: 96% | MEAN CORPUSCULAR HEMOGLOBIN [3]: 22.9 pg | MEAN CORPUSCULAR HEMOGLOBIN CONCENTRATION [3]: 37.7 G/DL | MEAN CORPUSCULAR VOLUME [3]: 60.9 fL | MONOCYTE [3]: 0.33% | NEUTROPHIL [3]: 3.67% | NUCLEATED RED BLOOD CELLS [3]: 0 /100WBC | PLATELET COUNT [3]: 1317.67 x10E3/uL | ALANINE AMINOTRANSFERASE [3]: 17.33 u/L | ALBUMIN [3]: 4.3 G/DL | ALKALINE PHOSPHATASE [3]: 341 u/L | ASPARTATE AMINOTRANSFERASE [3]: 104.67 u/L | BLOOD UREA NITROGEN [3]: 15.33 mg/dL | CARBON DIOXIDE [3]: 18.67 mmol/L | CHLORIDE [3]: 104.33 MEQ/L | CHOLESTEROL [3]: 69.33 mg/dL | CREATINE PHOSPHOKINASE [3]: 704 u/L | CREATININE [3]: 0.25 mg/dL | GLUCOSE [3]: 179.67 mg/dL | LACTATE DEHYDROGENASE [3]: 167.67 u/L | LIPASE [3]: 10 u/L | PHOSPHORUS [3]: 12.03 mg/dL | POTASSIUM [3]: 6.43 MEQ/L | SODIUM [3]: 147.5 MEQ/L | TOTAL BILIRUBIN [3]: 0.2 mg/dL | TOTAL PROTEIN [3]: 5.87 G/DL | URIC ACID [3]: 1.67 mg/dL | ABSOLUTE BASOPHIL [4]: 0 CELLS/uL | ABSOLUTE EOSINOPHIL [4]: 44.67 CELLS/uL | ABSOLUTE LYMPHOCYTE [4]: 13100 CELLS/uL | ABSOLUTE MONOCYTE [4]: 44.67 CELLS/uL | ABSOLUTE SEGMENTED NEUTROPHIL [4]: 1177.33 CELLS/uL | BASOPHIL [4]: 0% | EOSINOPHIL [4]: 0.33% | ERYTHROCYTE COUNT [4]: 4.96 x10E6/uL | HEMATOCRIT [4]: 30% | HEMOGLOBIN [4]: 11.57 G/DL | LEUKOCYTE COUNT [4]: 14.37 x10E3/uL | LYMPHOCYTE [4]: 91% | MEAN CORPUSCULAR HEMOGLOBIN [4]: 23.37 pg | MEAN CORPUSCULAR HEMOGLOBIN CONCENTRATION [4]: 38.53 G/DL | MEAN CORPUSCULAR VOLUME [4]: 60.57 fL | MONOCYTE [4]: 0.33% | NEUTROPHIL [4]: 8.33% | NUCLEATED RED BLOOD CELLS [4]: 0 /100WBC | PLATELET COUNT [4]: 1665.67 x10E3/uL | ALANINE AMINOTRANSFERASE [4]: 14.33 u/L | ALBUMIN [4]: 3.5 G/DL | ALKALINE PHOSPHATASE [4]: 153 u/L | ASPARTATE AMINOTRANSFERASE [4]: 98.33 u/L | BLOOD UREA NITROGEN [4]: 16.33 mg/dL | CARBON DIOXIDE [4]: 33 mmol/L | CHLORIDE [4]: 105.33 MEQ/L | CHOLESTEROL [4]: 68.67 mg/dL | CREATINE PHOSPHOKINASE [4]: 888.33 u/L | CREATININE [4]: 0.12 mg/dL | GLUCOSE [4]: 159 mg/dL | LACTATE DEHYDROGENASE [4]: 129 u/L | LIPASE [4]: 9.33 u/L | PHOSPHORUS [4]: 11.03 mg/dL | POTASSIUM [4]: 6.72 MEQ/L | SODIUM [4]: 145.83 MEQ/L | TOTAL BILIRUBIN [4]: 0.2 mg/dL | TOTAL PROTEIN [4]: 4.83 G/DL | URIC ACID [4]: 1.5 mg/dL

Source: ChEMBL document CHEMBL3885881, “DrugMatrix”
